# Tested on: TNF-α-induced IL-6 production in normal human skin fibroblast-derived CCD-1059Sk cells
# Assay: Test for measurement of inhibitory activity against TNF-α-induced IL-6 production
# Assay type: cell-based
# Conditions: Homo sapiens, CCD-1059Sk, 16 h, test compound at 10 μM, TNF-α stimulation 16 hours, inhibition ratio of 100% or more is indicated as 100%
# Experimental: 1. Test for Measurement of Inhibitory Activity Against IL-6 Production
# An inhibitory effect on TNF-α-induced IL-6 production in normal human skin fibroblast-derived CCD-1059Sk cells (ATCC No. CRL-2072) was evaluated. The amount of IL-6 was determined by the homogeneous time-resolved fluorescence method using HTRF™ Human IL-6 kit (Cat. No. 62IL6PEB, manufactured by CIS-Bio international, Inc.). Specific test methods will be described below.
# (Preparation of Test Compound Solution)
# After a test compound was dissolved in dimethyl sulfoxide, the resulting solution was diluted with D-MEM medium containing 0.1% heat-inactivated fetal bovine serum, 0.1 mM MEM non-essential amino acid solution, 100 U/mL penicillin and 100 μg/mL streptomycin (hereinafter referred to as “medium”), whereby a 40 μM test compound solution was prepared.
# (Test Method and Measurement Method)
# 1) CCD-1059Sk cells prepared at a density of 3×10^5 cells/mL were inoculated in a 384-well plate in an amount of 10 μL per well such that the cell density was 3×10^3 cells/well.
# 2). After the plate was incubated at 37° C. for several hours in a CO2 incubator, 5 μL of the test compound was added to each well.
# 3) After the plate was incubated at 37° C. for 1 hour in a CO2 incubator, 5 μL of a 40 ng/mL TNF-α solution was added to each well.
# 4) After the plate was incubated at 37° C. for 16 hours in a CO2 incubator, 10 μL of a cryptate-labeled anti-IL-6 antibody and an XL665-labeled anti-IL-6 antibody containing potassium fluoride was added to each well.
# 5) After the plate was incubated at room temperature for several hours, a fluorescence intensity ratio (665 nm/620 nm) was determined for each well using a multimode plate reader Analyse™ HT (manufactured by Molecular Device Corporation) and Criterion Host software version 2.00 (manufactured by Molecular Device Corporation), and then, the amount of IL-6 was calculated.
# 6) The same procedures as in the above 1) to 5) were performed except that 0.4% dimethyl sulfoxide was added in place of the test compound, and the obtained result was designated as the control.
# 7) The same procedures as in the above 1) to 5) were performed except that 0.4% dimethyl sulfoxide and the medium were added in place of the test compound and the TNF-α solution, respectively, and the obtained result was designated as the background.
# (Calculation Formula of IL-6 Production Inhibition Ratio)
# An IL-6 production inhibition ratio (%) was calculated from the following formula. IL-6 Production Inhibition Ratio (%)=100×{1−[(Amount of IL-6 for Test Compound)−(Amount of IL-6 for Background)/(Amount of IL-6 for Control)−(Amount of IL-6 for Background)]} (Evaluation Results)
row,Compound,inhibition at 10 µM [%]
1,"N#Cc1cccc(-c2cc(C(N)=O)c(NC(N)=O)[nH]2)c1 [Compound 1-39, 2-Aminocarbonylamino-5-(3-cyanophenyl) pyrrole-3-carboxamide]",99
2,"NC(=O)Nc1[nH]c(-c2ccccc2Cl)cc1C(N)=O [Compound 1-40, 2-Aminocarbonylamino-5-(2-chlorophenyl) pyrrole-3-carboxamide]",99
3,"Cc1ccc(-c2cc(C(N)=O)c(NC(N)=O)[nH]2)s1 [Compound 1-41, 2-Aminocarbonylamino-5-(5-methylthiophen-2-yl) pyrrole-3-carboxamide]",96
4,"Cc1ccccc1-c1cc(C(N)=O)c(NC(N)=O)[nH]1 [Compound 1-42, 2-Aminocarbonylamino-5-(2-methylphenyl) pyrrole-3-carboxamide]",94
5,"CSc1cccc(-c2cc(C(N)=O)c(NC(N)=O)[nH]2)c1 [Compound 1-43, 2-Aminocarbonylamino-5-(3-methylthiophenyl) pyrrole-3-carboxamide]",88
6,"CCSc1cccc(-c2cc(C(N)=O)c(NC(N)=O)[nH]2)c1 [Compound 1-44, 2-Aminocarbonylamino-5-(3-ethylthiophenyl) pyrrole-3-carboxamide]",92
7,"NC(=O)Nc1[nH]c(-c2ccccc2F)cc1C(N)=O [Compound 1-45, 2-Aminocarbonylamino-5-(2-fluorophenyl) pyrrole-3-carboxamide]",95
8,"NC(=O)Nc1[nH]c(-c2ccc(Cl)s2)cc1C(N)=O [Compound 1-48, 2-Aminocarbonylamino-5-(5-chlorothiophen-2-yl)pyrrole-3-carboxamide]",98
9,"Cc1cc(-c2cc(C(N)=O)c(NC(N)=O)[nH]2)c(C)s1 [Compound 1-51, 2-Aminocarbonylamino-5-(2,5-dimethylthiophen-3-yl)pyrrole-3-carboxamide]",96
10,"NC(=O)Nc1[nH]c(-c2cc(F)c(F)cc2F)cc1C(N)=O [Compound 1-52, 2-Aminocarbonylamino-5-(2,4,5-trifluorophenyl) pyrrole-3-carboxamide]",93
11,"NC(=O)Nc1[nH]c(-c2cc(F)ccc2F)cc1C(N)=O [Compound 1-53, 2-Aminocarbonylamino-5-(2,5-difluorophenyl) pyrrole-3-carboxamide]",94
12,"NC(=O)Nc1[nH]c(-c2ccccc2O)cc1C(N)=O [Compound 3-1, 2-Aminocarbonylamino-5-(2-hydroxyphenyl)pyrrole-3-carboxamide]",95
13,"NC(=O)Nc1[nH]c(-c2cc(F)ccc2O)cc1C(N)=O [Compound 3-3, 2-Aminocarbonylamino-5-(5-fluoro-2-hydroxyphenyl)pyrrole-3-carboxamide]",100
14,"NC(=O)Nc1[nH]c(-c2cc(Cl)ccc2O)cc1C(N)=O [Compound 3-4, 2-Aminocarbonylamino-5-(5-chloro-2-hydroxyphenyl)pyrrole-3-carboxamide]",100
15,"N#CCOc1ccccc1-c1cc(C(N)=O)c(NC(N)=O)[nH]1 [Compound 4-1, 2-Aminocarbonylamino-5-(2-cyanomethyloxyphenyl)pyrrole-3-carboxamide]",96
16,"N#CCOc1cccc(-c2cc(C(N)=O)c(NC(N)=O)[nH]2)c1 [Compound 4-9, 2-Aminocarbonylamino-5-(3-cyanomethyloxyphenyl) pyrrole-3-carboxamide]",89
17,"CCOc1ccccc1-c1cc(C(N)=O)c(NC(N)=O)[nH]1 [Compound 4-11, 2-Aminocarbonylamino-5-(2-ethoxyphenyl)pyrrole-3-carboxamide]",97
18,"NC(=O)Nc1[nH]c(-c2ccccc2OCc2cccnc2)cc1C(N)=O [Compound 4-15, 2-Aminocarbonylamino-5-[2-(pyridin-3-ylmethyloxy)phenyl]pyrrole-3-carboxamide]",91
19,"NC(=O)Nc1[nH]c(-c2ccccc2OCC2CC2)cc1C(N)=O [Compound 4-23, 2-Aminocarbonylamino-5-(2-cyclopropylmethyloxyphenyl) pyrrole-3-carboxamide]",97
20,"NC(=O)Nc1[nH]c(-c2ccccc2OCCCF)cc1C(N)=O [Compound 4-24, 2-Aminocarbonylamino-5-[2-(3-fluoropropyloxy)phenyl] pyrrole-3-carboxamide]",99

row,Compound,inhibition at 10 µM [%]
1,"NC(=O)Nc1[nH]c(-c2ccccc2OCCN2CCCCC2)cc1C(N)=O [Compound 4-27, 2-Aminocarbonylamino-5-[2-[2-(piperidin-1-yl)ethyloxyl]phenyl]pyrrole-3-carboxamide]",99
2,"CN(C)CCCOc1ccccc1-c1cc(C(N)=O)c(NC(N)=O)[nH]1 [Compound 4-30, 2-Aminocarbonylamino-5-[2-(3-dimethylaminopropyloxy)phenyl]pyrrole-3-carboxamide]",99
3,"CN(C)CCOc1ccccc1-c1cc(C(N)=O)c(NC(N)=O)[nH]1 [Compound 4-31, 2-Aminocarbonylamino-5-[2-(2-dimethylaminoethyloxy)phenyl]pyrrole-3-carboxamide]",98
4,"CN1CCCC1CCOc1ccccc1-c1cc(C(N)=O)c(NC(N)=O)[nH]1 (stereo not shown) [Compound 4-32, 2-Aminocarbonylamino-5-[2-[2-(1-methylpyrrolidin-2-yl)ethyloxy]phenyl]pyrrole-3-carboxamide]",99
5,"NC(=O)Nc1[nH]c(-c2cc(F)ccc2OCCCO)cc1C(N)=O [Compound 4-35, 2-Aminocarbonylamino-5-[5-fluoro-2-(3-hydroxypropyloxy)phenyl]pyrrole-3-carboxamide]",100
6,"CCOc1ccc(F)cc1-c1cc(C(N)=O)c(NC(N)=O)[nH]1 [Compound 4-47, 2-Aminocarbonylamino-5-(2-ethoxy-5-fluorophenyl)pyrrole-3-carboxamide]",100
7,"CCOc1ccc(Cl)cc1-c1cc(C(N)=O)c(NC(N)=O)[nH]1 [Compound 4-48, 2-Aminocarbonylamino-5-(5-chloro-2-ethoxyphenyl)pyrrole-3-carboxamide]",100
8,"C=CCOc1ccc(Cl)cc1-c1cc(C(N)=O)c(NC(N)=O)[nH]1 [Compound 4-49, 5-(2-Allyloxy-5-chlorophenyl)-2-(aminocarbonylamino)pyrrole-3-carboxamide]",100
9,"C#CCOc1ccc(Cl)cc1-c1cc(C(N)=O)c(NC(N)=O)[nH]1 [Compound 4-50, 2-Aminocarbonylamino-5-[5-chloro-2-(2-propynyloxy)phenyl]pyrrole-3-carboxamide]",100
10,"CC(=O)Oc1ccccc1-c1cc(C(N)=O)c(NC(N)=O)[nH]1 [Compound 5-1, 2-Aminocarbonylamino-5-(2-acetoxyphenyl)pyrrole-3-carboxamide]",94
11,NC(=O)Nc1[nH]c(-c2ccc(F)cc2)c(Cl)c1C(N)=O [Compound 7-3],98
12,"NC(=O)Nc1[nH]c(-c2ccccc2OCCCN2CCCC2)cc1C(N)=O [Compound 8-1, 2-Aminocarbonylamino-5-[2-[3-(pyrrolidin-1-yl)propyloxy]phenyl]pyrrole-3-carboxamide]",97
13,CN1CCN(CCOc2ccccc2-c2cc(C(N)=O)c(NC(N)=O)[nH]2)CC1 [Compound 8-2],77
14,NC(=O)Nc1[nH]c(-c2ccccc2OCCN2CCOCC2)cc1C(N)=O [Compound 8-3],95
15,NC(=O)Nc1[nH]c(-c2ccccc2OCCN2CCCC2)cc1C(N)=O [Compound 8-4],99
16,CC1CCN(CCOc2ccccc2-c2cc(C(N)=O)c(NC(N)=O)[nH]2)CC1 [Compound 8-10],98
17,CN(CCO)CCOc1ccccc1-c1cc(C(N)=O)c(NC(N)=O)[nH]1 [Compound 8-11],96
18,NC(=O)Nc1[nH]c(-c2cc(F)ccc2OCCN2CCCC2)cc1C(N)=O [Compound 8-12],100
19,CC1CCN(CCOc2ccc(F)cc2-c2cc(C(N)=O)c(NC(N)=O)[nH]2)CC1 [Compound 8-13],100

# Same assay, conditions: Homo sapiens, test compound at 10 μM, TNF-α stimulation 16 hours, inhibition ratio of 100% or more is indicated as 100%
row,Compound,inhibition at 10 µM [%]
1,"CCCNC(=O)Oc1ccccc1-c1cc(C(N)=O)c(NC(N)=O)[nH]1 [Compound 6-1, 2-Aminocarbonylamino-5-(2-propylaminocarbonyloxyphenyl)pyrrole-3-carboxamide]",99
